This passage reports TGI results from PubChem BioAssay (NCI).

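Five compound concentrations were applied to cells in 96-well plates for 48 hours; endpoints were derived by simple linear interpolation of the resulting dose-response curve. Definition used: TGI = concentration required for complete inhibition of growth.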 Some results are limits rather than exact numbers.

Some test systems named below: OVCAR-8 ovarian; HS 578T breast; SN12C renal; MOLT-4 leukemia; HCT-116 colon; SW-620 colon; MCF7 breast; COLO 205 colon; MALME-3M melanoma; CCRF-CEM leukemia; TK-10 renal; SR leukemia; NCI-H460 lung; UO-31 renal; RXF 393 renal; SK-OV-3 ovarian; OVCAR-4 ovarian.
Experiment in all cases: NCI-60 cell line screen, 48 h

For the molecule `CC1C(O)Oc2cc3c(cc2C1c1ccccc1O)OCO3` (stereo unspecified), the TGI was over 100 µM in the assay on OVCAR-8 ovarian; 46.6 µM in the assay with HS 578T breast; over 100 µM with SN12C renal; 61.7 µM in the assay with MOLT-4 leukemia; 35.5 µM in the assay on HCT-116 colon; over 100 µM with SW-620 colon. The TGI was over 100 µM with MCF7 breast; 31 µM in the assay on COLO 205 colon; 83.8 µM in the assay with MALME-3M melanoma; 51.2 µM with CCRF-CEM leukemia; 89.6 µM with TK-10 renal; 25.2 µM in the assay on SR leukemia. Besides, the TGI in the assay with NCI-H460 lung is 64.1 µM; in the assay with UO-31 renal, over 100 µM; in the assay with RXF 393 renal, 48.4 µM; in the assay with SK-OV-3 ovarian, over 100 µM.

In the case of `O=c1[nH]c2cc([N+](=O)[O-])ccc2nc1/C=C(\O)c1ccc(Cl)cc1`, the TGI in the assay on OVCAR-8 ovarian was 21.5 µM; with HS 578T breast, 44.8 µM; with MOLT-4 leukemia it was 46.2 µM; with HCT-116 colon, 11.8 µM; in the assay with SW-620 colon, 28.9 µM; in the assay with OVCAR-4 ovarian it was 41.1 µM. In addition, the TGI in the assay on MCF7 breast is 26.2 µM; in the assay with COLO 205 colon, 78.5 µM; with MALME-3M melanoma it was 84.9 µM; in the assay on CCRF-CEM leukemia, 33.8 µM; in the assay with TK-10 renal, 16.5 µM; with SR leukemia, 38.9 µM. The TGI in the assay on NCI-H460 lung turned out to be 24 µM; in the assay with UO-31 renal, 86.2 µM; in the assay with RXF 393 renal, 11.9 µM; in the assay on SK-OV-3 ovarian, 43.4 µM.

Regarding `CC1=CC(=O)/C(=C/n2c(=S)[nH]c3ccc([N+](=O)[O-])cc32)C(=O)O1`, the TGI with OVCAR-8 ovarian, in the assay on HS 578T breast, with SN12C renal, in the assay on MOLT-4 leukemia, in the assay on HCT-116 colon and with SW-620 colon was over 100 µM throughout. In addition, the TGI in the assay on OVCAR-4 ovarian, in the assay with MCF7 breast, in the assay with COLO 205 colon, in the assay with CCRF-CEM leukemia, in the assay on TK-10 renal and in the assay with SR leukemia was over 100 µM each time. For the same molecule, the TGI with NCI-H460 lung, in the assay with UO-31 renal, in the assay on RXF 393 renal and in the assay on SK-OV-3 ovarian was over 100 µM throughout.

Consider `COc1cccc(C2c3cc4c(cc3OC(N3CCCCC3)C2C)OCO4)c1OC` (stereo unspecified), for which the TGI with OVCAR-8 ovarian was over 100 µM; with HS 578T breast, 29.5 µM; in the assay with SN12C renal it was 96.8 µM; in the assay on MOLT-4 leukemia, 30.4 µM; with HCT-116 colon, 12.1 µM; with SW-620 colon it was 68.9 µM. Besides, the TGI was 52.1 µM in the assay on MCF7 breast; 29 µM with COLO 205 colon; 39.4 µM with MALME-3M melanoma; 15.2 µM in the assay with CCRF-CEM leukemia; 84.1 µM with TK-10 renal; 4.02 µM in the assay with SR leukemia. Further, the TGI is 27.9 µM with NCI-H460 lung, 48.6 µM with UO-31 renal, 28.2 µM in the assay with RXF 393 renal and over 100 µM in the assay on SK-OV-3 ovarian.

Turning to `O=C(/C=C/c1ccc2c(c1)OCO2)CC(=O)/C=C/c1ccc2c(c1)OCO2`, the TGI in the assay on HS 578T breast was over 100 µM; with SN12C renal, over 100 µM; with MOLT-4 leukemia, over 100 µM; in the assay on HCT-116 colon it was over 100 µM; with SW-620 colon, over 100 µM; with OVCAR-4 ovarian, 68.5 µM. The TGI in the assay on MCF7 breast was over 100 µM; in the assay on COLO 205 colon, over 100 µM; with MALME-3M melanoma it was over 100 µM; with CCRF-CEM leukemia, over 100 µM; in the assay with TK-10 renal, over 100 µM; in the assay on SR leukemia, 79.8 µM. Also, the TGI in the assay with NCI-H460 lung, in the assay on UO-31 renal, in the assay with RXF 393 renal and with SK-OV-3 ovarian was over 100 µM each time.

Consider `O=C(c1ccccc1)C1C[C@H]2CO[C@H](c3ccccc3)N2C1=O` (stereo partly specified), for which the TGI in the assay on OVCAR-8 ovarian, in the assay on HS 578T breast, in the assay with SN12C renal, in the assay on MOLT-4 leukemia, with HCT-116 colon and with SW-620 colon was over 100 µM throughout. Further, the TGI in the assay on OVCAR-4 ovarian, with MCF7 breast, in the assay on COLO 205 colon, in the assay with MALME-3M melanoma, with CCRF-CEM leukemia and in the assay on TK-10 renal was over 100 µM throughout. The TGI in the assay on SR leukemia, in the assay with NCI-H460 lung, in the assay with UO-31 renal and in the assay on RXF 393 renal was over 100 µM throughout.

For `O=C(CC(=O)N1N=C(N(c2ccccc2)c2ccccc2)CC1c1ccccc1)Nc1ccccc1` (stereo unspecified), the TGI with OVCAR-8 ovarian, in the assay on HS 578T breast, with MOLT-4 leukemia, in the assay on HCT-116 colon, in the assay with SW-620 colon and in the assay on OVCAR-4 ovarian was over 100 µM throughout. Besides, the TGI with MCF7 breast, in the assay with COLO 205 colon, in the assay on CCRF-CEM leukemia, in the assay with TK-10 renal, in the assay on SR leukemia and with NCI-H460 lung was over 100 µM each time. Moreover, the TGI with UO-31 renal, in the assay with RXF 393 renal and in the assay on SK-OV-3 ovarian was over 100 µM each time.

For the molecule `CC(C)N1[C@@H]2CCCC[C@H]2N(C(C)C)P1(=O)C(=O)/C=C/c1ccccc1`, the TGI in the assay with OVCAR-8 ovarian turned out to be 3.46 µM; with HS 578T breast it was 4.94 µM; in the assay on SN12C renal, 3.96 µM; in the assay on MOLT-4 leukemia, 16.1 µM; with HCT-116 colon, 3.73 µM; in the assay on OVCAR-4 ovarian, 3.39 µM. Further, the TGI came to 59.9 µM in the assay on MCF7 breast; 5.05 µM in the assay on COLO 205 colon; 2.33 µM with MALME-3M melanoma; 12.9 µM in the assay with TK-10 renal; 8.27 µM in the assay with SR leukemia; 10.3 µM in the assay on NCI-H460 lung. The TGI with UO-31 renal was determined as 3.13 µM; with RXF 393 renal, 3.46 µM.

Turning to `COc1cc2c(cc1OC)C(=O)/C(=C/c1ccc([N+](=O)[O-])cc1)CC2`, the TGI with OVCAR-8 ovarian, in the assay with HS 578T breast, with SN12C renal, in the assay on MOLT-4 leukemia, with HCT-116 colon and in the assay with SW-620 colon was over 10 µM each time. In addition, the TGI with OVCAR-4 ovarian, with MCF7 breast, with COLO 205 colon, in the assay on MALME-3M melanoma, with CCRF-CEM leukemia and in the assay on TK-10 renal was over 10 µM in each case. Moreover, the TGI with SR leukemia, in the assay with NCI-H460 lung, with RXF 393 renal and in the assay on SK-OV-3 ovarian was over 10 µM throughout.
